Laboratory results from a melting point compilation (Tetko et al.; mined from patent text by program, amines drawn as free bases though some values may be those of a salt).

SMILES | melting point
COc1ccc2c(c1)c(-c1cc3c(-c4cccnc4)ccnc3[nH]1)cn2C | 248 to 249 °C
CCOC(=O)Cc1sc(Sc2nccc(C)c2C(=O)OCC)nc1C | 85 to 87 °C
CCSc1c(O[C@@H]2CCC[C@H](N)C2)ccc2[nH]ncc12 (relative stereo) | 110 °C
Cc1cc(-c2ccccc2)n2nc(N)nc2n1 | 246 to 250 °C
COc1cc(Cl)c2nc(NN)nc(N)c2c1OC | 168 to 169 °C
O=C1N(Cc2nsc(Cl)n2)c2ccccc2C12COc1cc3c(cc12)OCO3 (stereo unspecified) | 114 to 116 °C
Cc1nc2ccc(Cn3ccnc3)cc2nc1Cl | 116 °C
CCNCCn1c(-c2ccc(Br)cc2)cc2c1CCSC2 | 84 to 85 °C
COc1cc(C=CC(=O)c2ccccc2F)cc(OC)c1 | 71.6 to 72.5 °C
COc1ccc(N2C(=O)O[C@H](CO)[C@@H]2C)cc1 | 99 to 101 °C
CC(=O)Nc1ccccn1 | 155 to 156 °C
C#CCOc1ccc(C(=O)O)c(C2=NC(=O)C(C)(C(C)C)N2)n1 (stereo unspecified) | 195 to 198 °C
CCC(=O)c1ccc(OC)c(OC(C)C)c1 | 58.1 to 58.7 °C
CN(C(=O)C(F)(F)F)c1cnc(-c2cncc(F)c2)s1 | 168 to 170 °C
CC(C)(C)[Si](C)(C)OC1CN(S(C)(=O)=O)Cc2nc3c(N)nc4ccccc4c3n2C1 (stereo unspecified) | 256 to 258 °C
Cn1ncc(C(=O)N2CC(F)C2)c1C(=O)Nc1ccn2nc(-c3cccnc3)nc2c1 | 247 to 249 °C
CCOC(=O)CCC1CCN(c2ccc(C#N)c3ccccc23)CC1 | 106 to 107 °C
CCN1c2ncccc2C(=O)Nc2c(C)cc(NCCn3cc[nH]c3=O)nc21 | > 300 °C
C=CCNc1nc(NCCOC)nc2c(C)csc12 | 87 to 88 °C
CCOC(=O)c1c(C)nn(-c2c(Cl)cc(Cl)cc2Cl)c1N | 150 °C

SMILES | melting point
Cn1nc(C(F)(F)F)cc1Oc1cccc(-c2nc(C(F)(F)C(F)(F)F)no2)n1 | 109 to 110 °C
CC(C)(C)N(O)CC(O)c1cc(F)c(N)c(Br)c1 (stereo unspecified) | 122 to 125 °C
COc1cc(OC)c2c(=O)[nH]c(-c3cc(C)c(OCCN4CCCC4)c(C)c3)nc2n1 | 228 to 230 °C
CCN1c2ncccc2C(N(C)C)=Nc2c(C)cc(C)nc21 | 150 to 152 °C
NC(=S)c1sccc1N | 98 to 99 °C
COc1ccc(C=C2Oc3ccc(C(=O)O)cc3C2=O)c(OC)c1OC | 247 to 249 °C
Cc1nc(CO)c2n1-c1ccc(Cl)cc1C(c1ccccc1F)=NC2 | 233 to 235 °C
COc1ccc(-c2nc(N)ncc2-c2ccc(=O)[nH]n2)cc1OC | 225 °C
Cc1nc2c(c3ccccc3n3nnnc23)n1CC(C)(C)O | 202 to 205 °C
CSc1ccc(C=CC(=O)C=Cc2ccc(SC)cc2)cc1 | 143 to 145 °C
Cc1ccc(C=CC(=O)NN2CC(=O)NC2=O)cc1Cl | 271 to 273 °C
Nn1c(C(F)(F)F)cc(-c2ccc(C(F)(F)F)cc2)cc1=S | 156 °C
CCOC(=O)CN(CC(=O)OCC)c1ccc(C=O)c(O)c1 | 190 °C
CN(C)CCOc1ccc(O)c(C=NCCN=Cc2cc(OCCN(C)C)ccc2O)c1 | 84 to 86 °C
COc1ccc(C2CCN(C(=O)C(N)=O)CC2)cc1CC1CCCC1 | 117 to 118 °C
CC(=O)NC(C#N)NC(=O)c1cc(Cl)cc(Cl)c1 (stereo unspecified) | 227 to 228 °C
CC(C)Oc1cc(O)c2c(=O)cc(Sc3ccc(O)cc3)oc2c1 | 205 to 207 °C
O=c1[nH]c(C(F)(F)F)nc2ccc(I)cc12 | > 255 °C
CCc1ccc(-n2nc(Cl)cc2-c2ccc(S(C)(=O)=O)cc2)cc1N | 158 to 160 °C
CCCCOc1ccc(/C=C/c2nc3c(c(=O)n(CC)c(=O)n3CC)n2C)cc1 | 123 to 124 °C

SMILES | melting point
CCc1cccc(CC)c1N1C(=S)N(C)C(O)C1O (stereo unspecified) | 87 to 90 °C
Nc1cc(Cl)c(Cl)cc1C(=O)O | 196 to 203 °C
C=C[C@@H]1O[C@](C#CC2CC2)(C(F)(F)F)c2c(ccc(F)c2F)NC1=O (relative stereo) | 171 to 172 °C
COCOc1ccc(C=CC(=O)c2c(OCOC)cc(OCOC)c(CC=C(C)C)c2O)cc1OC | 62.5 to 63.5 °C
Cc1cc(C)c(NC(=O)N(O)C(C)C)cc1C | 176 to 177 °C
Nc1ccc2cnn(-c3ccnc(N[C@H]4CC[C@H](O)CC4)n3)c2c1 | 236 to 238 °C
CC(=O)c1cc(-c2ccc(C(F)(F)F)cc2)oc1C | 87 to 88 °C
COc1nn(-c2ccnc(N[C@H]3CC[C@H](O)CC3)n2)c2ccccc12 | 202 to 205 °C
CC(C)(C)c1cc(CCC(=O)O)n(Cc2ccc(C(F)(F)F)cc2Cl)n1 | 128 to 129 °C
Cc1cccc(C)c1N1CCN(CCNc2c(Cl)cnn(C)c2=O)CC1 | 225 to 232 °C
CCc1nc(/C=C\c2cn(-c3ccccc3)nc2OCc2ccc(OCc3csc(N4CCCCC4)n3)c(OC)c2)cs1 | 93 to 94 °C
O=c1c2c(OCC3CS3)cc(OCC3CS3)cc2oc2ccc3ccccc3c12 (stereo unspecified) | 225 to 226 °C
Cc1ccc2c(c1)C(=O)N(C)Cc1c(C(N)=NO)ncn1-2 | 227 to 229 °C
CCC(=O)c1cc2c(Oc3ccc(Cl)cc3)cncc2s1 | 101 to 102 °C
Cc1cc(C(N)=O)cc([N+](=O)[O-])n1 | 227 to 228 °C
CCOC(=Nc1nc(C)cc(OC)n1)NS(=O)(=O)c1ccccc1OC(F)F | 131 to 133 °C
CN1Cc2c(C#CC(C)(C)O)ncn2-c2ccccc2C1=O | 168 to 169 °C
O=C1c2c(ccc(F)c2Cl)-n2cnc(-c3noc(CCl)n3)c2[C@@H]2CCN12 | 214 to 217 °C

Other lines, results leading:

melting point | SMILES
221 °C | O=C(Cc1cc(F)cc(F)c1)Nc1cccc2nc(N[C@@H]3CCc4ccccc43)ccc12
50 to 51 °C | COc1ccc2c(c1)CCC(Cc1ccccc1)C2=O (stereo unspecified)
192 °C | O=C(Nc1ccccc1S(=O)(=O)c1ccccc1)N[C@@H](Cc1ccc(Nc2nccc3cnccc23)cc1)C(=O)O
150 to 151 °C | Cc1cccc(C(=O)Nc2c[nH]nc2C(=O)NCCOC(C)C)n1
139 to 141 °C | NC(=O)N(O)C1C=C(c2cccc(Oc3ccccc3)c2)CC1 (single isomer, unassigned; (+))
137 to 140 °C | Oc1ccc(C2=COc3ccccc3O2)cc1
142 to 144 °C | CC(=O)c1ccc(S(=O)(=O)NCCCn2ccnc2)cc1
142 to 143 °C | COc1ccccc1C(=C/C=C/C(=O)Oc1ccc([N+](=O)[O-])cc1)c1ccccc1OC
108 °C | CCCCc1nc(SC)c(C(=O)OCC)n1Cc1ccccc1-c1cccc(S(=O)(=O)NC#N)c1
104 to 106 °C | COc1ccc(Br)c(C(Cl)=NNS(=O)(=O)c2ccccc2)c1
55 to 56 °C | OCCCc1nc(-c2ccccc2)co1
86 to 88 °C | CC(C(=O)O)c1ccc(C(=O)c2ccco2)cc1 (stereo unspecified)
188 to 189 °C | CCOC(=O)C=Cc1ccc(NC(=O)Nc2cccnc2)cc1
123 to 125 °C | N#CC1c2cc(OCc3ccccc3)cc(OCc3ccccc3)c2C=CN1C(=O)c1ccccc1 (stereo unspecified)
184 °C | CCN(CC)c1ccc(C(=O)c2ccccc2C(=O)O)cc1
50 to 52 °C | COC(=O)CCCc1cc2cc(Cl)ccc2n1S(=O)(=O)c1ccc2c(c1)CN(C(C)=O)CC2
122 to 124 °C | O=CNc1ccccc1Nc1ccc(C(=O)c2ccccc2)cc1
300 °C | O=C(Nc1ccc(Br)c2c1C(=O)c1ccccc1C2=O)c1ccccc1
185 to 186 °C | NC(=O)c1cccc(-c2ccc(Cl)c3cc(Cc4ccc(F)c(F)c4)sc23)c1
138 to 141 °C | N=c1ccccn1CC(O)COc1cccc2ccccc12 (stereo unspecified)
178 to 180 °C | Cc1ccc(C)n1-c1ccc(OC(C)(C)C(=O)O)cc1
108 to 111 °C | O=C(Cn1c(-c2cccs2)ncc(NC(=O)OCc2ccccc2)c1=O)NC(Cc1ccccc1)C(=O)C(F)(F)F (stereo unspecified)

melting point | SMILES
156 to 159 °C | O=C(O)c1ccc(CNC(=O)C(CS)Cc2ccccc2)cc1 (stereo unspecified)
243 to 245 °C | CC(=O)Nc1nc(NC(C)=O)nc(-c2ccc(Oc3ccccc3)cc2)n1
106 °C | CN(C)c1cccc2c(S(=O)(=O)Nc3ccc4nonc4c3)cccc12
143 to 145 °C | COc1ccc(C(=O)c2c(N)sc3c2CCN(C(=O)c2ccccc2)C3)cc1OC
210 °C | COc1cc2c(cc1OC)CN(CCc1ccc(NC(=O)c3cccc4c(=O)c5cccc(F)c5[nH]c34)c(C)c1)CC2
167 to 169 °C | CCCOc1ccccc1-c1cc(C)c(C(=O)OC)c(=O)[nH]1
294 to 296 °C | Cc1nc2c(N)nc3ccccc3c2n1Cc1cc(-c2ccc(F)cc2)no1
252 to 256 °C | O=C(O)c1cn(-c2ccc(F)cc2)c2cc(F)c(F)cc2c1=O
152 to 154 °C | S=CN1CCC(C(c2ccccc2)c2ccccc2)CC1
160 to 161 °C | CC(C)(C)c1ccc(C(O)CCCN2CCC(=C3c4ccccc4COc4ccccc43)CC2)cc1 (stereo unspecified)
166 to 167 °C | N#CC1(c2cccc3ccccc23)CCC(=O)CC1
101 to 102 °C | CNC(=O)C(=NOC)c1ccccc1COc1ncc(C(=O)OC(C)C)cc1C
64 to 65 °C | OCC(CO)Cc1ccccc1
167 to 168 °C | CCN(CC)C(=O)/C=C(\C)c1ccc(OCc2c(F)cccc2F)c(CC(=O)O)c1
153 to 154 °C | Cc1nc(C(N)=O)n(COCc2ccccc2)c1Sc1ccccc1
164 to 166 °C | COC(=O)c1cccc(-c2c(C)[nH]c(=S)n2Nc2cccc(C)c2)c1
190 °C | COc1ccc(CCN(C)CCOc2ccc(NC(=O)c3cccc4c(=O)c5cccc(OC)c5[nH]c34)cc2)cc1OC
195 °C | COc1ccc(Cl)cc1C(=O)NCCc1ccc(-c2ccco2)c(S(N)(=O)=O)c1
155 °C | COc1ccc(-c2nccn2N=Cc2ccccc2)cc1
184 to 189 °C | O=C(O)c1cccc(C(=O)CCl)n1
191 to 193 °C | CN(C)c1ccc(C(=N)NC=Cc2ccc([N+](=O)[O-])cc2)cc1
